The structures appear in SMILES notation. pIC50: −log10 of the molar value.

This test concerns the target T1, Acetylcholinesterase (Mus musculus, UniProt P21836).
T1 sequence (P21836 whole entry): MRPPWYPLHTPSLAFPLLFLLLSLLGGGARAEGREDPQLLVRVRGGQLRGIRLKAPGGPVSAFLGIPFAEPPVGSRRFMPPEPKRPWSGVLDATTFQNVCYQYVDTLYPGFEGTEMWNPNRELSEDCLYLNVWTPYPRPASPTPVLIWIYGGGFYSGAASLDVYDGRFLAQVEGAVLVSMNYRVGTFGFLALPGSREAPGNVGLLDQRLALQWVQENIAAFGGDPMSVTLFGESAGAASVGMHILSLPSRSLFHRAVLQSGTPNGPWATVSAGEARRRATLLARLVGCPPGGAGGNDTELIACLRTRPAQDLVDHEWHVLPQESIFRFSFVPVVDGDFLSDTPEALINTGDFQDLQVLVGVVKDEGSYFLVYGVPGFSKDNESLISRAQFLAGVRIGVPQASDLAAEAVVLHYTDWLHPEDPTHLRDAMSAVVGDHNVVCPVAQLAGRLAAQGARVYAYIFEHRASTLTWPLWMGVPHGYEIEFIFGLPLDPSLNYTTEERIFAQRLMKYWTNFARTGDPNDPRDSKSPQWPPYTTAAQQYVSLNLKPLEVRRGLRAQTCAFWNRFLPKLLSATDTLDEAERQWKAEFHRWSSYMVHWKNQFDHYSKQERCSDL
Description: Inhibition of Swiss albino mouse RBC AChE after 30 mins by Ellman method
Broadly, the pIC50 is the IC50 on a negative log10 scale, so that one unit is a factor of ten. For the molecule `Cc1cccc(NC(=O)Oc2ccc3c(c2)CCCN3Cc2ccccc2)c1`, the pIC50 is 4.22.
The result for `Cc1cccc(NC(=O)Oc2ccc3c(c2)CCCN3Cc2ccc(Cl)cc2Cl)c1` reads 6.15.
The figure for `O=C(Nc1ccc(F)cc1)Oc1ccc2c(c1)CCCN2Cc1ccc(Cl)cc1Cl` is 4.05; for `Cc1ccc(NC(=O)Oc2ccc3c(c2)CCCN3Cc2ccc(Cl)cc2Cl)cc1` it is 3.07.
The result for `O=C(Nc1ccccc1F)Oc1ccc2c(c1)CCCN2Cc1ccc(Cl)cc1Cl` reads 5.59; that for `CCCCCCNC(=O)Oc1ccc2c(c1)CCCN2Cc1ccc(Cl)cc1Cl`, 4.85; that for `Cc1ccccc1NC(=O)Oc1ccc2c(c1)CCCN2Cc1ccc(Cl)cc1Cl`, 5.59.
`O=C(Nc1ccc(Cl)cc1)Oc1ccc2c(c1)CCCN2Cc1ccc(Cl)cc1Cl` gave a pIC50 of 2.46.
In turn, `O=C(Nc1ccccc1Cl)Oc1ccc2c(c1)CCCN2Cc1ccc(Cl)cc1Cl` gave a pIC50 of 4.93.
As for `COc1ccccc1NC(=O)Oc1ccc2c(c1)CCCN2Cc1ccc(Cl)cc1Cl`, the pIC50 is 4.86.
The result for `CCCCCCCNC(=O)Oc1ccc2c(c1)CCCN2Cc1ccc(Cl)cc1Cl` reads 3.98.
`O=C(Nc1cccc(Br)c1)Oc1ccc2c(c1)CCCN2Cc1ccc(Cl)cc1Cl` had a pIC50 of 3.85.
On to `O=C(Nc1cccc(Cl)c1)Oc1ccc2c(c1)CCCN2Cc1ccc(Cl)cc1Cl`, for which the pIC50 is 3.68.
`Cc1ccccc1NC(=O)Oc1ccc2c(c1)CCCN2Cc1ccccc1` had a pIC50 of 4.84.
The result for `CCCCCCCCNC(=O)Oc1ccc2c(c1)CCCN2Cc1ccc(Cl)cc1Cl` reads less than 2.00.

The values are drawn from ChEMBL document CHEMBL2158001, “Lead optimization studies towards the discovery of novel carbamates as potent AChE inhibitors for the potential treatment of Alzheimer's disease” (Bioorg Med Chem, 2012).
